Several values for one entry are separate records, joined by “and”; a condition that tells them apart may be missing. Identical values can stand only once.
How the values were obtained:
[1] = tested on: H358; assay: In vitro combination proliferation assay (4 day, Cell TiterGlo), H358; assay type: cell-based; conditions: H358, 4 day growth assay, absolute IC50
Experimental: Eleven cell lines for this study are obtained from ATCC and grown under ATCC recommended conditions. All cell lines have a KRAS G12C mutation, and they are […] lung cancer cell lines (H358, H1373, H1792, H2030, H2122, SW1573 and HCC44), two colorectal cancer cell lines (SW837 and SW1463), one pancreatic cancer cell line (MiaPaca-2), and one esophageal cancer cell line (KYSE410). The proliferation assay is performed as a 4 day growth assay using Cell TiterGlo® as the readout. Briefly, cells are plated in 96-well cell culture plates and allowed to adhere overnight at 37° C. The following day, cells are treated with compounds, either single treatments or combination treatments. First, the testing compounds are serially diluted in DMSO, followed by dilution into media as a 5×concentration with 1% DMSO, and finally added to cells in media to dilute to 1×. […] At the end of the incubation period, Cell TiterGlo® reagent is mixed and added to the wells. After 10 minutes, the luminescence is read by a Perkin Elmer Envision instrument. Absolute IC50 values generated by a 4-parameter logistics model for the single and combination treatments are generated, followed by combination indexes for each combination treatment and cell line. The combination IC50 values are adjusted based on the total concentration of each compound when added together. […] The combination index (CI) measures the degree to which the potency of a combination therapy differs from the expected-if-additive potency and is based on the Loewe definition of additivity.
• CA,y and CB,y are the concentrations of therapies A and B that produce an effect, y, when given in combination • ICA,y and ICB,y are the concentrations of A and B that produce an effect, y, when given individually
In some cases, if an estimated IC50 value is used for CI calculation, the calculated CI is called Potentiation Index. The biological interpretation of the combination or potentiation index is as follows: synergistic if the combination or potentiation index <0.5, additive if the combination or potentiation index is between 0.5 and 2, and antagonistic if the combination index or potentiation is >2. […]

[2] = tested on: p-ERK1/2; assay: H358 Cellular Phospho-ERK AlphaLISA; assay type: cell-based; conditions: Homo sapiens, NCI-H358; H358 cells, 2 hours; n=3; read-out: relative IC50
Excerpt: The purpose of this assay is to measure the ability of test compounds to inhibit the phosphorylation of p-ERK1/2, a downstream effector of KRas in human lung cancer cells H358 (ATCC CRL-5807). Briefly, the AlphaLISA® SureFire® Ultra™ p-ERK 1/2 (Thr202/Tyr204) assay is a sandwich immunoassay for quantitative detection of phospho-ERK 1/2 (phosphorylated on Thr202/Tyr204 in ERK1, or Thr185/Tyr187 in ERK2) in cellular lysates using Alpha Technology (Perkin Elmer Cat #ALSU-PERK-A50K).
H358 cells are plated at 40K cells per well in 100 μL media (RPMI 1640, GIBCO Cat #22400-071) containing 10% FBS (GIBCO Cat #: 10082-147) in a 96 well plate (Costar #3596) and are incubated overnight in humid trays at 37° C., 5% CO2. […] The assay plate is then read on an EnVision™ Plate Reader (Perkin Elmer) using a luminescence program. […]
Compounds within the scope of this invention are evaluated in this assay substantially as described above.

Row | IC50 [2] [nM] | SMILES | IC50, single treatment (Compound IC50 / Example 35 IC50) [1] | IC50, single treatment (Compound IC50 / Example 35 IC50 / ABS_IC50) [1]
1 | – | C=CC(=O)N1CCN2C(=O)c3cc(F)c(-c4ccc(F)c5sc(N)c(C#N)c45)c(Cl)c3OCC[C@H]2C1 [Example 35, 4-[(13aS)-10-Chloro-8-fluoro-6-oxo-2-prop-2-enoyl-1,3,4,12,13,13a-hexahydropyrazino[2,1-d][1,5]benzoxazocin-9-yl]-2-amino-7-fluoro-benzothiophene-3-carbonitrile] | 3.199 nM and 2.231 nM | 1.854 nM and 1 nM
2 | 1.78 | C=CC(=O)N1CCN2C(=O)c3cc(Cl)c(-c4ccc(F)c5sc(N)nc45)c(Cl)c3OCC[C@H]2C1 (atropisomer, axis not shown) [Example 1, (13aS)-9-(2-Amino-7-fluoro-1,3-benzothiazol-4-yl)-8,10-dichloro-2-prop-2-enoyl-1,3,4,12,13,13a-hexahydropyrazino[2,1-d][1,5]benzoxazocin-6-one] | – | –
